What was measured:
[1] = test system: target transcript mRNA in A549 cells; assay: Level of mRNA of target transcript in A549 cells by quantitative RT-PCR (Tables 12 and 13); type: cell-based, human; conditions: 24 h post-transfection; for mRNA knockdown of transporter gene target transcript, 0.1 nM: 0.1 nM siRNA; for mRNA knockdown of transporter gene target transcript, 1 nM: 1 nM siRNA
Summary of the method: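 Target mRNA was measured by SYBR Green quantitative RT-PCR using random-primed cDNA, normalised to HPRT and Lamin. Samples came from A549 cells 24 h post-transfection with 0.1, 1.0 or 10 nM siRNA.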

A549 cells = assay: Growth inhibition of siRNA-transfected A549 cells, SYBR Green I DNA content; type: cell-based, human; conditions: A549 cells, 10 nM siRNA, DNA content 96 hours after transfection, transporter gene targets
Summary of the method: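 Growth read-out: cellular DNA quantified with SYBR Green I (485/535 nm) 96 h after transfection, cells frozen, thawed and lysed in PBS/1% Triton X-100, pH 7. Cells (A549, 5×10^3 cells/cm^2) received 10 nM siRNA by RNAiMAX; non-specific siRNA served as control; triplicate wells averaged.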

Row | Substance | mRNA knockdown of transporter gene target transcript, 0.1 nM [1] | mRNA knockdown of transporter gene target transcript, 1 nM [1] | Growth Inhibition in A549 cells by 10 nM siRNA (A549 cells) | mRNA knockdown of transporter gene target transcript, 10 nM ([1]; 10 nM siRNA)
1 | SEQ ID NO: 4927: siRNA targeting SLC25A1 (CIC) (chain 1 TGCCTTTGTAGAATGCCTTGAGCCC; chain 2 UGCCUUUGUAGAAUGCCUUGAGCCC; chemistry not given here; one strand in two spellings) | ++ (70-90% mRNA knockdown) | ++ (70-90% mRNA knockdown) | − (no growth inhibition) | 
2 | SEQ ID NO: 4933: siRNA targeting SLC29A1 (ENT1) (chain 1 TGGAGACTGAAACTCCAGATTCCTC; chain 2 UGGAGACUGAAACUCCAGAUUCCUC; chemistry not given here; one strand in two spellings) | − (<50% mRNA knockdown) | ++ (70-90% mRNA knockdown) | + (inhibits by at least 50%) | ++ (70-90% mRNA knockdown)
3 | SEQ ID NO: 4911: siRNA targeting SLC5A6 (SMVT1) (chain 1 AATGACGGAGCATAGAGCACAACTC; chain 2 AAUGACGGAGCAUAGAGCACAACUC; Antisense strand given in DNA and RNA notation, chemistry not given here; one strand in two spellings) | ++ (70-90% mRNA knockdown) | ++ (70-90% mRNA knockdown) | − (no growth inhibition) | 
4 | SEQ ID NO: 4955: siRNA targeting ATP6V1C1 (chain 1 TTGATTGGATATTTGGCCATGTCCC; chain 2 UUGAUUGGAUAUUUGGCCAUGUCCC; chemistry not given here; one strand in two spellings) | + (50-70% mRNA knockdown) | ++ (70-90% mRNA knockdown) | − (no growth inhibition) | 
5 | SEQ ID NO: 4948: siRNA targeting ATP2B4 (PMCA4) (chain 1 ATCTGAGTCTGGATACGGTTCAGGC; chain 2 AUCUGAGUCUGGAUACGGUUCAGGC; chemistry not given here; one strand in two spellings) | − (<50% mRNA knockdown) | ++ (70-90% mRNA knockdown) | − (no growth inhibition) | 
6 | SEQ ID NO: 4900: siRNA targeting SLC2A12 (GLUT12) (chain 1 TTGAAATATAGGCAGAAAGAATGCC; chain 2 UUGAAAUAUAGGCAGAAAGAAUGCC; Antisense strand given in DNA and RNA notation, chemistry not given here; one strand in two spellings) | ++ (70-90% mRNA knockdown) | ++ (70-90% mRNA knockdown) | − (no growth inhibition) | 
7 | SEQ ID NO: 4970: siRNA targeting ABCC4 (MRP4) (chain 1 AATCTTGGAAATCTCCTTCTTTCTC; chain 2 AAUCUUGGAAAUCUCCUUCUUUCUC; chemistry not given here; one strand in two spellings) | ++ (70-90% mRNA knockdown) | ++ (70-90% mRNA knockdown) | − (no growth inhibition) | 
8 | SEQ ID NO: 4965: siRNA targeting ATP7A (chain 1 TTATAATGCAGTGTCATCATCTTCC; chain 2 UUAUAAUGCAGUGUCAUCAUCUUCC; chemistry not given here; one strand in two spellings) | − (<50% mRNA knockdown) | − (<50% mRNA knockdown) | − (no growth inhibition) | 
9 | SEQ ID NO: 4977: siRNA targeting ABCB1 (MDR1) (chain 1 AAACGATGAGCTATCACAATGGTGG; chain 2 AAACGAUGAGCUAUCACAAUGGUGG; chemistry not given here; one strand in two spellings) | − (<50% mRNA knockdown) | − (<50% mRNA knockdown) | − (no growth inhibition) | 
10 | SEQ ID NO: 4967: siRNA targeting ATP7B (chain 1 AATTCTGGTTAGCAGAAGATAAAGG; chain 2 AAUUCUGGUUAGCAGAAGAUAAAGG; chemistry not given here; one strand in two spellings) | − (<50% mRNA knockdown) | − (<50% mRNA knockdown) | + (inhibits by at least 50%) | 
11 | SEQ ID NO: 4912: siRNA targeting SLC5A6 (SMVT1) (chain 1 ACCAGTGTCTGGAACACATCTGTCC; chain 2 ACCAGUGUCUGGAACACAUCUGUCC; Antisense strand given in DNA and RNA notation, chemistry not given here; one strand in two spellings) | + (50-70% mRNA knockdown) | + (50-70% mRNA knockdown) | − (no growth inhibition) | 
12 | SEQ ID NO: 4946: siRNA targeting ATP2B4 (PMCA4) (chain 1 AATATCACCAACCACAATCTCAGCC; chain 2 AAUAUCACCAACCACAAUCUCAGCC; chemistry not given here; one strand in two spellings) | ++ (70-90% mRNA knockdown) | ++ (70-90% mRNA knockdown) | − (no growth inhibition) | 
13 | SEQ ID NO: 4937: siRNA targeting ATP2B1 (PMCA1) (chain 1 ATTTATGTAAGCTTGAACGACTGTC; chain 2 AUUUAUGUAAGCUUGAACGACUGUC; chemistry not given here; one strand in two spellings) | ++ (70-90% mRNA knockdown) | ++ (70-90% mRNA knockdown) | − (no growth inhibition) | 
14 | SEQ ID NO: 4918: siRNA targeting SLC23A2 (SVCT2) (chain 1 AATCCAAGCACAAAGAGGTTCCGGG; chain 2 AAUCCAAGCACAAAGAGGUUCCGGG; Antisense strand given in DNA and RNA notation, chemistry not given here; one strand in two spellings) | ++ (70-90% mRNA knockdown) | ++ (70-90% mRNA knockdown) | − (no growth inhibition) | 
15 | SEQ ID NO: 4957: siRNA targeting ATP6V1C1 (chain 1 TAGACCTTGGAACTACCATTTCGGC; chain 2 UAGACCUUGGAACUACCAUUUCGGC; chemistry not given here; one strand in two spellings) | ++ (70-90% mRNA knockdown) | ++ (70-90% mRNA knockdown) | − (no growth inhibition) | 
